# Experimental data reported in ChEMBL document CHEMBL3991601, “The target landscape of clinical kinase drugs” (Science, 2017).
# Calls of active or inactive are those of the source.
# Assays:
# [1] = molecular target: T1, Serine/threonine-protein kinase A-Raf (Homo sapiens, UniProt P10398)
# T1 sequence (P10398 whole entry): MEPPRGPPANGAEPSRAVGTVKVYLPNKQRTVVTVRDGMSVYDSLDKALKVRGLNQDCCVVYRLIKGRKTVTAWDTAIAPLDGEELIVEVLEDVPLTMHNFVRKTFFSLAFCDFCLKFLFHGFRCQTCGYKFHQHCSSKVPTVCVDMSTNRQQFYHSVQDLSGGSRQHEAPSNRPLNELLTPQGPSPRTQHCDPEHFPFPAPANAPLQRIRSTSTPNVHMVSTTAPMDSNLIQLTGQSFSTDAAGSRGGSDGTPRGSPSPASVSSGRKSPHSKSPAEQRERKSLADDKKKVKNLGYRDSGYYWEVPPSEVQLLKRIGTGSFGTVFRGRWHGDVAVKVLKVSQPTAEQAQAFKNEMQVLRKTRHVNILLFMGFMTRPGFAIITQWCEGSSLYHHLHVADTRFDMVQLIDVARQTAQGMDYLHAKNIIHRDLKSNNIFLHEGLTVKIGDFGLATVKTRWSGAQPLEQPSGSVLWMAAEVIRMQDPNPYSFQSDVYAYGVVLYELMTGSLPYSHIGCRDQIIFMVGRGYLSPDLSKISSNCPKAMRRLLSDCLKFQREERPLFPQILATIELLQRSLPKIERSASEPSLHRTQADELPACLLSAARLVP
# [2] = molecular target: Maternal embryonic leucine zipper kinase (Homo sapiens, UniProt Q14680)
# Glycine--tRNA ligase = molecular target: T2, Glycine--tRNA ligase (Homo sapiens, UniProt P41250)
# T2 sequence (P41250 whole entry): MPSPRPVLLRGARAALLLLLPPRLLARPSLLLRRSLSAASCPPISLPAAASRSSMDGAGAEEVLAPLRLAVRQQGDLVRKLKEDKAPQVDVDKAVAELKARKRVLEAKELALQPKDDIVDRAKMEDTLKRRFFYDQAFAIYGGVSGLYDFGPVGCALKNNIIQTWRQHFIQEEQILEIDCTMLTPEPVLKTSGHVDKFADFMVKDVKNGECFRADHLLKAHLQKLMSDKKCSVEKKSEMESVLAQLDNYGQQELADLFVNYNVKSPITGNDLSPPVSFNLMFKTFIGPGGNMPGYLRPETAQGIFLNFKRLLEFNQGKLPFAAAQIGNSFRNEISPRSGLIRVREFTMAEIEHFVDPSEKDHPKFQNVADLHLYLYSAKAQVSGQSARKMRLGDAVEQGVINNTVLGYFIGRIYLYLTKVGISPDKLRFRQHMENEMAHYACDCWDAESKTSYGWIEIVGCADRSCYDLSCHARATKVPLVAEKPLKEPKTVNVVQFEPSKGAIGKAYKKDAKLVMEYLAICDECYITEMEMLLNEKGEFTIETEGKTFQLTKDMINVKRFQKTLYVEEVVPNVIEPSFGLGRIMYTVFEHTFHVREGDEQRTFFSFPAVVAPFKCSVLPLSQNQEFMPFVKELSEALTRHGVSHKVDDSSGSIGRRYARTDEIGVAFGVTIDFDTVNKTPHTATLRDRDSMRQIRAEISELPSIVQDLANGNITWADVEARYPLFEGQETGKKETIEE
# [3] = molecular target: T3, Signal recognition particle receptor subunit alpha (Homo sapiens, UniProt P08240)
# T3 sequence (P08240 whole entry): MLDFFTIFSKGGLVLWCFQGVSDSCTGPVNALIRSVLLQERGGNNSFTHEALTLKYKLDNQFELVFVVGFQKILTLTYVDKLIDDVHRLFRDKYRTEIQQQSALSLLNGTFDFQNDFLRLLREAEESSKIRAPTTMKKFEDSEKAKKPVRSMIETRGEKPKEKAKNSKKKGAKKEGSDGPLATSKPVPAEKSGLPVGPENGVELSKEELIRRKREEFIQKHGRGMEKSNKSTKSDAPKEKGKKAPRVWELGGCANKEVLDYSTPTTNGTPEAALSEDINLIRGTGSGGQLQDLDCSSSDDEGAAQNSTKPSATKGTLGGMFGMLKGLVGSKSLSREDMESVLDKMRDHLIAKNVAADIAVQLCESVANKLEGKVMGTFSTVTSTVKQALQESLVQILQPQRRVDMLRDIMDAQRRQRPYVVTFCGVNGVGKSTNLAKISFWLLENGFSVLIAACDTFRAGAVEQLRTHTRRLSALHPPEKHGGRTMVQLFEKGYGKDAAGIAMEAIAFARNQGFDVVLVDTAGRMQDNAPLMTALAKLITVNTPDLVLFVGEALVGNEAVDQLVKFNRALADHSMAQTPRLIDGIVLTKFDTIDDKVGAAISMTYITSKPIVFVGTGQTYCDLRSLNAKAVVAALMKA
# [4] = molecular target: Protein-tyrosine kinase 2-beta (Homo sapiens, UniProt Q14289)
# Heme oxygenase 2 = molecular target: T4, Heme oxygenase 2 (Homo sapiens, UniProt P30519)
# T4 sequence (P30519 whole entry): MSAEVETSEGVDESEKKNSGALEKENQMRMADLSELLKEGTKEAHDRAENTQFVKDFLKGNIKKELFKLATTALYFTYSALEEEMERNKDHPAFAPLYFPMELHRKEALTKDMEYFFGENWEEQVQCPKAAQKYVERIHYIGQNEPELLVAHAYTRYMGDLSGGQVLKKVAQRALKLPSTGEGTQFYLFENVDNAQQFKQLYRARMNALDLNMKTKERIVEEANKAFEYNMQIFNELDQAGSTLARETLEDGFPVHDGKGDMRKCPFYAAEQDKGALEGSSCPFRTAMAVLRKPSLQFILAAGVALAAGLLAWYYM
# Note: in the data inactive means no Kd found up to 30 µM.
# Sequence of Maternal embryonic leucine zipper kinase (Q14680 whole entry): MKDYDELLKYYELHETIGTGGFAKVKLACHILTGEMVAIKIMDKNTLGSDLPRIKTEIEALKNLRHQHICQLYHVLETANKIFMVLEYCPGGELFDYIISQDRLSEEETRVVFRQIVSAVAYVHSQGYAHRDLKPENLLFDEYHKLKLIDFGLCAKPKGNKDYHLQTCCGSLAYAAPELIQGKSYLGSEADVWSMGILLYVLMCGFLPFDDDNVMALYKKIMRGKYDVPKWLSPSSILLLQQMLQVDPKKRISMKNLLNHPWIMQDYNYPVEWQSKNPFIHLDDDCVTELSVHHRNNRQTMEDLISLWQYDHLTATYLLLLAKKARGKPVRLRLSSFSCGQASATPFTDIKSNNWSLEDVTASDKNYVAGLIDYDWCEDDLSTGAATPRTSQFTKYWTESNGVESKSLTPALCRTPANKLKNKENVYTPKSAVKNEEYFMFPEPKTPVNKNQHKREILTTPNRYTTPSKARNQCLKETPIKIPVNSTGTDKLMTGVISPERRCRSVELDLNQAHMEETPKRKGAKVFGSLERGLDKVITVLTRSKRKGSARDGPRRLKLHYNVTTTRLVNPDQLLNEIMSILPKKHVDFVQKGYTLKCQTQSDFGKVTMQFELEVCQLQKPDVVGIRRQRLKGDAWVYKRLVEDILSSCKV
# Sequence of Protein-tyrosine kinase 2-beta (Q14289 whole entry): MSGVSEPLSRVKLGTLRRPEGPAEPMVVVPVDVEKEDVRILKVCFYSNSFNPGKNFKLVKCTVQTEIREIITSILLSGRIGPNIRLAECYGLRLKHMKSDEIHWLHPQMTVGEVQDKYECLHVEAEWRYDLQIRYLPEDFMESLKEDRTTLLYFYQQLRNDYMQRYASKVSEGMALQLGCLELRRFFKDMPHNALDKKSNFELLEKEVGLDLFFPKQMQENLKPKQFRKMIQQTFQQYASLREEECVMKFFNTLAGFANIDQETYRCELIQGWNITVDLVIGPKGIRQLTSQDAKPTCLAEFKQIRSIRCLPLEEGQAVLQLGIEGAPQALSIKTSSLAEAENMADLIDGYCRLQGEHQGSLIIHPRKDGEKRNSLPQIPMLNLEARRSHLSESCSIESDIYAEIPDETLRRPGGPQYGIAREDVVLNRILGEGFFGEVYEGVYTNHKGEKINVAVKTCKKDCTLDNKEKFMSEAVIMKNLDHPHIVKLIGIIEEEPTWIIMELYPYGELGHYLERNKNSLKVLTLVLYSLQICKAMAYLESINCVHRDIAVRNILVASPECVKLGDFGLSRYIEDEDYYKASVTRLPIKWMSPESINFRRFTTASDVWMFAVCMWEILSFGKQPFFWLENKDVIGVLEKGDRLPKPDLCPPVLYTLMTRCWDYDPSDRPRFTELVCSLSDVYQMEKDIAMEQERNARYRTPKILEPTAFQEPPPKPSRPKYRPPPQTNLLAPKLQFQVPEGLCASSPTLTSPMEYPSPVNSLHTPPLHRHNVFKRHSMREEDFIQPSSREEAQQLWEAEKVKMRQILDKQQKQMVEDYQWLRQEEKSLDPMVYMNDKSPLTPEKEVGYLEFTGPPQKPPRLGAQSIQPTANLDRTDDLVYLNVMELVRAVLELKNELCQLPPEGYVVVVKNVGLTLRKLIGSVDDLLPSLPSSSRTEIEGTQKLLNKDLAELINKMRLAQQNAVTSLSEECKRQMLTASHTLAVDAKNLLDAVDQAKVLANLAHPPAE
Structure (SMILES),Kd [1],Kd [2],Kd (Glycine--tRNA ligase),Kd [3],Kd [4],Kd (Heme oxygenase 2)
C[C@@H](Oc1cc(C(=O)Nc2ccc(C(=O)N3CCN(C)CC3)cc2)nnc1N)c1c(Cl)ccc(F)c1Cl,> 30 µM (inactive),> 30 µM (inactive),> 30 µM (inactive),> 30 µM (inactive),> 30 µM (inactive),> 30 µM (inactive)
Cc1cccc(-c2nn3c(c2-c2ccnc4ccc(C(N)=O)cc24)CCC3)n1 [GALUNISERTIB],> 30 µM (inactive),> 30 µM (inactive),> 30 µM (inactive),> 30 µM (inactive),> 30 µM (inactive),> 30 µM (inactive)
O=C(Nc1nc2cccc(-c3ccc(CN4CCS(=O)(=O)CC4)cc3)n2n1)C1CC1 [FILGOTINIB],> 30 µM (inactive),> 30 µM (inactive),> 30 µM (inactive),> 30 µM (inactive),> 30 µM (inactive),> 30 µM (inactive)
Cc1nc(Nc2n[nH]c3c2CN(C(=O)N[C@H](CN(C)C)c2ccccc2)C3(C)C)c2sccc2n1 [PF-03758309],> 30 µM (inactive),0.057 µM (active),> 30 µM (inactive),> 30 µM (inactive),1.4 µM (active),> 30 µM (inactive)
COc1cc([C@@H]2c3cc4c(cc3[C@H](O)[C@H]3COC(=O)[C@@H]23)OCO4)cc(OC)c1OC [AXL-1717],> 30 µM (inactive),> 30 µM (inactive),> 30 µM (inactive),> 30 µM (inactive),> 30 µM (inactive),> 30 µM (inactive)
Cc1csc(-c2nnc(Nc3ccc(Oc4ncccc4-c4ccnc(N)n4)cc3)c3ccccc23)c1 [AMG-900],> 30 µM (inactive),> 30 µM (inactive),> 30 µM (inactive),> 30 µM (inactive),> 30 µM (inactive),> 30 µM (inactive)
COCc1c(-c2ccc(NC(=O)Nc3cc(C(F)(F)F)ccc3F)c(F)c2)c2c(N)ncnn2c1CN1CCOCC1,> 30 µM (inactive),> 30 µM (inactive),> 30 µM (inactive),> 30 µM (inactive),> 30 µM (inactive),> 30 µM (inactive)
CN1CCN(CCOc2cc(OC3CCOCC3)c3c(Nc4c(Cl)ccc5c4OCO5)ncnc3c2)CC1 [SARACATINIB],> 30 µM (inactive),> 30 µM (inactive),> 30 µM (inactive),> 30 µM (inactive),> 30 µM (inactive),> 30 µM (inactive)
CNC(=O)c1cc(Oc2ccc(NC(=O)Nc3cc(C(C)(C)C)nn3-c3ccc4ncccc4c3)c(F)c2)ccn1 [REBASTINIB],33.7 µM (active),> 30 µM (inactive),> 30 µM (inactive),> 30 µM (inactive),9.24 µM (active),> 30 µM (inactive)
COc1ccc(S(=O)(=O)N(C(C)=O)c2ccccc2/C=C/c2cc[n+]([O-])cc2)cc1 [HMN-214],> 30 µM (inactive),> 30 µM (inactive),> 30 µM (inactive),> 30 µM (inactive),> 30 µM (inactive),> 30 µM (inactive)
COc1cc2c(Nc3ccc(Cl)c(Cl)c3F)ncnc2cc1OC[C@@H]1C[C@@H]2CN(C)C[C@@H]2C1 [TESEVATINIB],> 30 µM (inactive),> 30 µM (inactive),> 30 µM (inactive),> 30 µM (inactive),> 30 µM (inactive),> 30 µM (inactive)
CO[C@H]1C[C@@H]2CC[C@@H](C)[C@@](O)(O2)C(=O)C(=O)N2CCCC[C@H]2C(=O)O[C@H]([C@H](C)C[C@@H]2CC[C@@H](OC(=O)C(C)(CO)CO)[C@H](OC)C2)CC(=O)[C@H](C)/C=C(\C)[C@@H](O)[C@@H](OC)C(=O)[C@H](C)C[C@H](C)/C=C/C=C/C=C/1C [TEMSIROLIMUS],> 30 µM (inactive),> 30 µM (inactive),> 30 µM (inactive),> 30 µM (inactive),> 30 µM (inactive),> 30 µM (inactive)
Cn1cnc2c(F)c(Nc3ccc(Br)cc3F)c(C(=O)NOCCO)cc21 [BINIMETINIB],> 30 µM (inactive),> 30 µM (inactive),> 30 µM (inactive),> 30 µM (inactive),> 30 µM (inactive),> 30 µM (inactive)
COc1c(OCCCN2CCOCC2)ccc2c1N=C(NC(=O)c1cnc(N)nc1)N1CCN=C21 [COPANLISIB],> 30 µM (inactive),> 30 µM (inactive),> 30 µM (inactive),> 30 µM (inactive),> 30 µM (inactive),> 30 µM (inactive)
O=c1[nH]ccc2cc(OC3CCNCC3)ccc12 [SAR-407899 FREE BASE],> 30 µM (inactive),> 30 µM (inactive),> 30 µM (inactive),> 30 µM (inactive),> 30 µM (inactive),> 30 µM (inactive)
CNC(=O)c1cccc2cc(Oc3ccnc4cc(OCC5(N)CC5)c(OC)cc34)ccc12 [LUCITANIB],> 30 µM (inactive),> 30 µM (inactive),> 30 µM (inactive),> 30 µM (inactive),> 30 µM (inactive),> 30 µM (inactive)
C=CC(=O)Nc1cc2c(Nc3ccc(F)c(Cl)c3)ncnc2cc1C#CC(C)(C)N1CCN(C)CC1 [AV-412 FREE BASE],> 30 µM (inactive),> 30 µM (inactive),> 30 µM (inactive),> 30 µM (inactive),> 30 µM (inactive),> 30 µM (inactive)
NC(=O)Nc1cc(-c2cccc(F)c2)sc1C(=O)N[C@H]1CCCNC1 [AZD-7762],> 30 µM (inactive),4.53 µM (active),> 30 µM (inactive),> 30 µM (inactive),0.608 µM (active),> 30 µM (inactive)
Cn1cc(-c2cnn3c(N)c(Br)c([C@@H]4CCCNC4)nc23)cn1 [SCH-900776],> 30 µM (inactive),4.69 µM (active),> 30 µM (inactive),> 30 µM (inactive),> 30 µM (inactive),> 30 µM (inactive)
CCn1c(C(=O)N(C2CC2)C2CC2)cc2c3c(ncn3C)c(Nc3cc(C)n(C)n3)nc21 [BMS-911543],> 30 µM (inactive),> 30 µM (inactive),> 30 µM (inactive),> 30 µM (inactive),> 30 µM (inactive),> 30 µM (inactive)
FC(F)(F)c1ccc(/C=C/c2nc(COc3ccc(CCCCn4ccnn4)cc3)co2)cc1 [MUBRITINIB],> 30 µM (inactive),> 30 µM (inactive),> 30 µM (inactive),> 30 µM (inactive),> 30 µM (inactive),> 30 µM (inactive)
